# Test results from PubChem BioAssay AID330 (DTP/NCI, 2004).
# Values joined by “and” are separate entries in the source; they are usually repeats but may differ in a detail not shown here. Identical values can stand only once. Toxic doses and inconclusive results are not listed. Numbered stars: 1 amine (or outer) side, 2 acyl side, 3 side chain; on linkers, the order of the positions; unused ones are H or OH. Bridge positions count the residues as written; N and C are the ends. Square brackets hold non-standard residues; d marks the D form. Peptide text beside a SMILES is read from it. I, II: the chains in the order shown. * marks the point of attachment. ξ: configuration not given here. Quinaldoyl(3-OH,6-OMe) = COc1ccc2nc(C(=O)*)c(O)cc2c1; X8 = CC(=O)OC1CC=NN([*:1])C1C(=O)[*:2]; ξNMeVal(3-OH) = CNC(C(=O)O)C(C)(C)O; X7 = O=C(C1C(O)CC=NN1[*:1])[*:2]; Sar = CNCC(=O)O
# Test system: P388 leukemia ip, CD2F1 mice, survival T/C
# Experiment: NCI In Vivo Anticancer Drug Screen. Data for tumor model P388 Leukemia (intraperitoneal) in CD2F1 (CDF1) mice
# Details: endpoint: median survival time, higher = longer survival
# How it was run: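 Mice carrying the transplanted tumor received test compound or vehicle. Survival was recorded in each group, and the value is the treated-group measurement divided by that of the vehicle-treated control group.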
# [1] = dose: 50.0 mg/kg/injection, schedule: Q01DX009 (ip), vehicle: Klucel (hydroxypropylcellulose) (HPC)
# [2] = dose: 100.0 mg/kg/injection, schedule: Q01DX009 (ip), vehicle: Klucel (hydroxypropylcellulose) (HPC)
# [3] = dose: 100.0 mg/kg/injection, schedule: Q04DX002 (ip), vehicle: saline with Tween-80
# [4] = dose: 200.0 mg/kg/injection, schedule: Q04DX002 (ip), vehicle: saline with Tween-80
# [5] = dose: 400.0 mg/kg/injection, schedule: Q04DX002 (ip), vehicle: saline with Tween-80
# [6] = dose: 60.0 mg/kg/injection, schedule: Q01DX005 (ip), vehicle: Klucel (hydroxypropylcellulose) (HPC)
# [7] = dose: 120.0 mg/kg/injection, schedule: Q01DX005 (ip), vehicle: Klucel (hydroxypropylcellulose) (HPC)
# [8] = dose: 240.0 mg/kg/injection, schedule: Q01DX005 (ip), vehicle: Klucel (hydroxypropylcellulose) (HPC)
# [9] = dose: 25.0 mg/kg/injection, schedule: Q01DX009 (ip), vehicle: saline with Tween-80
# [10] = dose: 50.0 mg/kg/injection, schedule: Q01DX009 (ip), vehicle: saline with Tween-80
# [11] = dose: 100.0 mg/kg/injection, schedule: Q01DX009 (ip), vehicle: saline with Tween-80
# [12] = dose: 200.0 mg/kg/injection, schedule: Q01DX009 (ip), vehicle: saline with Tween-80
compound,measurement,setting,value
C=C1C(=O)OC2C1CCC(=C)C1CC(O)C(=C)C12 (stereo not drawn),T/C,"dose: 9.37 mg/kg/injection, schedule: Q01DX009 (ip), vehicle: suspension in saline",103 % of control
same,T/C,"dose: 18.75 mg/kg/injection, schedule: Q01DX009 (ip), vehicle: suspension in saline",119 % of control and 123 % of control
same,T/C,"dose: 37.5 mg/kg/injection, schedule: Q01DX009 (ip), vehicle: suspension in saline",121 % of control
CC(C)c1ncc(CO)n1Cc1c(Cl)cccc1Cl,T/C,[1],100 % of control
same,T/C,[2],102 % of control
same,T/C,"dose: 200.0 mg/kg/injection, schedule: Q01DX009 (ip), vehicle: Klucel (hydroxypropylcellulose) (HPC)",100 % of control
CN(C)C1C(=O)C(C(=O)NCN2CCOB(c3ccccc3)OCC2)=C(O)C2(O)C(O)=C3C(=O)C4C(O)=CC=CC4C(C)(O)C3CC12 (stereo not drawn),T/C,"dose: 12.5 mg/kg/injection, schedule: Q04DX002 (ip), vehicle: saline",101 % of control
same,T/C,"dose: 25.0 mg/kg/injection, schedule: Q04DX002 (ip), vehicle: saline",105 % of control
same,T/C,"dose: 50.0 mg/kg/injection, schedule: Q04DX002 (ip), vehicle: saline",108 % of control
"COc1ccc2nc(C(=O)NC3COC(=O)C(C(C)(C)O)N(C)C(=O)CN(C)C(=O)CNC(=O)C4C(OC(C)=O)CC=NN4C(=O)C(NC(=O)c4nc5ccc(OC)cc5cc4O)COC(=O)C(C(C)(C)O)N(C)C(=O)CN(C)C(=O)CNC(=O)C4C(O)CC=NN4C3=O)c(O)cc2c1 (stereo not drawn) (I: {Quinaldoyl(3-OH,6-OMe)}-S[X7]G[Sar][ξNMeVal(3-OH)] / II: {Quinaldoyl(3-OH,6-OMe)}-S[X8]G[Sar][ξNMeVal(3-OH)]; ester I:1-II:C, I:C-II:1; configuration not given here)",T/C,"dose: 6.25 micrograms/kg/injection, schedule: Q01DX005 (ip), vehicle: DMSO",108 % of control
same,T/C,"dose: 12.5 micrograms/kg/injection, schedule: Q01DX005 (ip), vehicle: DMSO",112 % of control
same,T/C,"dose: 25.0 micrograms/kg/injection, schedule: Q01DX005 (ip), vehicle: DMSO",118 % of control
same,T/C,"dose: 50.0 micrograms/kg/injection, schedule: Q01DX005 (ip), vehicle: DMSO",119 % of control
same,T/C,"dose: 100.0 micrograms/kg/injection, schedule: Q01DX005 (ip), vehicle: DMSO",123 % of control
C=C(Cl)C(=NC(C)(C)C)N(CC)CC,T/C,"dose: 12.5 mg/kg/injection, schedule: Q01DX005 (ip), vehicle: Klucel (hydroxypropylcellulose) (HPC)",104 % of control
same,T/C,"dose: 25.0 mg/kg/injection, schedule: Q01DX005 (ip), vehicle: Klucel (hydroxypropylcellulose) (HPC)",104 % of control
same,T/C,"dose: 50.0 mg/kg/injection, schedule: Q01DX005 (ip), vehicle: Klucel (hydroxypropylcellulose) (HPC)",107 % of control and 110 % of control
NC(=O)c1cc2c3ccccc3ncc2c2ccccc12,T/C,"dose: 100.0 mg/kg/injection, schedule: Q01DX001 (ip), vehicle: saline with Tween-80",100 % of control
same,T/C,"dose: 200.0 mg/kg/injection, schedule: Q01DX001 (ip), vehicle: saline with Tween-80",100 % of control
same,T/C,"dose: 400.0 mg/kg/injection, schedule: Q01DX001 (ip), vehicle: saline with Tween-80",100 % of control
CC(C)C12OC1CC13OC1C1OC1C1OC132 (stereo not drawn),T/C,[3],101 % of control
same,T/C,[4],99 % of control
same,T/C,[5],94 % of control
Cc1c(C)c(C)c(S(=O)(=O)N2CCN(S(=O)(=O)c3c(C)c(C)c(C)c(C)c3C)CC2)c(C)c1C,T/C,"dose: 50.0 mg/kg/injection, schedule: Q01DX005 (ip), vehicle: saline with Tween-80",100 % of control
same,T/C,"dose: 100.0 mg/kg/injection, schedule: Q01DX005 (ip), vehicle: saline with Tween-80",97 % of control
same,T/C,"dose: 200.0 mg/kg/injection, schedule: Q01DX005 (ip), vehicle: saline with Tween-80",96 % of control
O=C(O)CCc1ccccc1Br,T/C,[3],101 % of control
same,T/C,[4],95 % of control
same,T/C,[5],100 % of control
CSc1cccc(NC(=O)Nc2ccc(S(N)(=O)=O)cc2)c1,T/C,[1],92 % of control
same,T/C,[2],87 % of control
COC(=O)N1Cc2cc3ccccc3nc2C1C (stereo not drawn),T/C,[6],101 % of control
same,T/C,[7],104 % of control
same,T/C,[8],109 % of control
Nc1c(Cl)cc(C(=O)NC2CC2)cc1Cl,T/C,[9],94 % of control and 95 % of control
same,T/C,[10],100 % of control and 88 % of control
same,T/C,[11],102 % of control and 113 % of control
same,T/C,[12],109 % of control and 89 % of control
CCOC(=O)Cn1c(=O)cc(-c2ccccc2)oc1=O,T/C,[10],106 % of control
same,T/C,[11],107 % of control
same,T/C,[12],90 % of control
C/C=C1/CN2CCC34c5ccccc5N(C)C23C(O)CC1C4(CO)C(=O)OC (stereo not drawn),T/C,"dose: 13.75 mg/kg/injection, schedule: Q01DX005 (ip), vehicle: saline + Tween-80 + alcohol",106 % of control
same,T/C,"dose: 27.5 mg/kg/injection, schedule: Q01DX005 (ip), vehicle: saline + Tween-80 + alcohol",102 % of control
same,T/C,"dose: 55.0 mg/kg/injection, schedule: Q01DX005 (ip), vehicle: saline + Tween-80 + alcohol",110 % of control
same,T/C,"dose: 110.0 mg/kg/injection, schedule: Q01DX005 (ip), vehicle: saline + Tween-80 + alcohol",100 % of control
Cc1ccccc1C(C)(O)c1cnc(C)n1Cc1ccccc1 (stereo not drawn),T/C,[6],111 % of control
same,T/C,[7],96 % of control
same,T/C,[8],91 % of control
COC(=O)c1ccccc1N1C(=O)C=CC1=O,T/C,"dose: 6.25 mg/kg/injection, schedule: Q04DX003 (ip), vehicle: saline with Tween-80",92 % of control
same,T/C,"dose: 12.5 mg/kg/injection, schedule: Q04DX003 (ip), vehicle: saline with Tween-80",92 % of control
CC(=O)[OH+]c1c(Br)cc(Br)cc1C(=O)[O-].CC(=O)[OH+]c1c(Br)cc(Br)cc1C(=O)[O-].[Cu+2],T/C,"dose: 12.5 mg/kg/injection, schedule: Q01DX005 (ip), vehicle: saline with Tween-80",101 % of control
same,T/C,"dose: 25.0 mg/kg/injection, schedule: Q01DX005 (ip), vehicle: saline with Tween-80",100 % of control
same,T/C,"dose: 50.0 mg/kg/injection, schedule: Q01DX005 (ip), vehicle: saline",102 % of control
Clc1ccc(/C=N\N=C\c2ccc(Cl)c(Cl)c2)cc1Cl,T/C,[9],95 % of control
same,T/C,[10],100 % of control
same,T/C,[11],110 % of control
same,T/C,[12],90 % of control
same,T/C,"dose: 400.0 mg/kg/injection, schedule: Q01DX009 (ip), vehicle: saline with Tween-80",90 % of control
COc1cc(C)c(C)cc1C1(c2cc(C)c(C)cc2O)C(=O)c2ccccc2C1=O,T/C,"dose: 50.0 mg/kg/injection, schedule: Q01DX009 (ip), vehicle: saline",100 % of control
same,T/C,"dose: 100.0 mg/kg/injection, schedule: Q01DX009 (ip), vehicle: saline",93 % of control
COC(=O)C1=C(C(=O)OC)C2(C)NC1(C)c1c(C)ccc(C)c12,T/C,"dose: 42.5 mg/kg/injection, schedule: Q01DX001 (ip), vehicle: saline with Tween-80",103 % of control
same,T/C,"dose: 85.0 mg/kg/injection, schedule: Q01DX001 (ip), vehicle: saline with Tween-80",94 % of control
same,T/C,"dose: 170.0 mg/kg/injection, schedule: Q01DX001 (ip), vehicle: saline with Tween-80",89 % of control
CC1OS(=O)(=O)C=C1Br (stereo not drawn),T/C,"dose: 100.0 mg/kg/injection, schedule: Q04DX003 (ip), vehicle: saline with Tween-80",108 % of control
same,T/C,"dose: 200.0 mg/kg/injection, schedule: Q04DX003 (ip), vehicle: saline with Tween-80",97 % of control
same,T/C,"dose: 400.0 mg/kg/injection, schedule: Q04DX003 (ip), vehicle: saline with Tween-80",89 % of control
CSCCc1nc(C)oc1C,T/C,[10],94 % of control
same,T/C,[11],100 % of control
same,T/C,[12],102 % of control
NC(=S)N/N=C\c1ncccc1OCc1cccc(N)c1,T/C,"dose: 12.5 mg/kg/injection, schedule: Q01DX009 (ip), vehicle: distilled water + Tween-80",122 % of control
same,T/C,"dose: 12.5 mg/kg/injection, schedule: Q01DX009 (ip), vehicle: other",111 % of control
same,T/C,"dose: 25.0 mg/kg/injection, schedule: Q01DX009 (ip), vehicle: other",120 % of control and 124 % of control
same,T/C,"dose: 200.0 mg/kg/injection, schedule: Q01DX009 (ip), vehicle: distilled water + Tween-80",116 % of control
same,T/C,"dose: 200.0 mg/kg/injection, schedule: Q01DX009 (ip), vehicle: other",152 % of control
same,T/C,"dose: 400.0 mg/kg/injection, schedule: Q01DX009 (ip), vehicle: distilled water + Tween-80",100 % of control
CCOc1nc(N)nc(C)c1N=Nc1ccc(Br)cc1,T/C,"dose: 60.0 mg/kg/injection, schedule: Q01DX005 (ip), vehicle: Klucel + Tween-80",100 % of control
same,T/C,"dose: 120.0 mg/kg/injection, schedule: Q01DX005 (ip), vehicle: Klucel + Tween-80",104 % of control
same,T/C,"dose: 240.0 mg/kg/injection, schedule: Q01DX005 (ip), vehicle: Klucel + Tween-80",99 % of control
